For 16 compounds, CC50 and EC50 results are on record in ChEMBL document CHEMBL1156829 (Proc Natl Acad Sci U S A, 2008).

One may read the CC50 as the concentration that lowers cell viability or growth by half. As a reminder, the EC50 is the midpoint of the concentration-response curve.

The subject of one series is Huh-7. Kind of series: (§1) NOVARTIS: Cytotoxicity against human hepatocellular carcinoma cell line (Huh7). The class given is toxicity, cell-based.
The test system of series [1] is Plasmodium falciparum. Briefly: NOVARTIS: Inhibition of Plasmodium falciparum W2 (drug-resistant) proliferation in erythrocyte-based infection assay. It is filed as functional, organism-based. Conditions: read-out: EC50.
Series [2] deals with Plasmodium falciparum. Kind of series: NOVARTIS: Inhibition of Plasmodium falciparum 3D7 (drug-susceptible) proliferation in erythrocyte-based infection assay. It is filed as functional, organism-based.
Series [3] can be described thus: as §1. It is filed as toxicity, cell-based, Huh-7. The following applies: Huh7 cells (hepatocellular carcinoma cell line).

Where “and” joins values, the source holds several entries; their conditions need not be identical. Identical values can stand only once. Counter-ions that a name gives are not always drawn. Numbered stars: 1 amine (or outer) side, 2 acyl side, 3 side chain; on linkers, the order of the positions; unused ones are H or OH. Bridge positions count the residues as written; N and C are the ends. Square brackets hold non-standard residues; d marks the D form. Peptide text beside a SMILES is read from it. I, II: the chains in the order shown. Actinocin(1to9) = Cc1c2oc3c(C)ccc(C(=O)[*:2])c3nc-2c(C(=O)[*:1])c(N)c1=O; NMeV = CN[C@H](C(=O)O)C(C)C; Sar = CNCC(=O)O

In the case of `CC[n+]1c(C=CN(C)c2ccccc2)sc2ccc(OC)cc21.[O-][Cl+3]([O-])([O-])[O-]`, the 50% cytotoxic concentration (CC50) in the series on Huh-7 (huh-7, read-out: CC50) is > 100000 nM. Also, the concentration for a half-maximal effect (EC50) in the series on Plasmodium falciparum [1] (Plasmodium falciparum, W2) was determined as 255 nM; in the series with Plasmodium falciparum [2] (Plasmodium falciparum, 3D7), 145 nM.
Turning to `CN(C)c1ccc(C=CC=Cc2cccc[n+]2C)cc1.[O-][Cl+3]([O-])([O-])[O-]`, in the series with Huh-7 (huh-7, read-out: CC50), the half-maximal cytotoxic concentration (CC50) is > 100000 nM. The concentration giving a half-maximal response (EC50) with Plasmodium falciparum [1] (Plasmodium falciparum, W2) was determined as 178 nM; with Plasmodium falciparum [2] (Plasmodium falciparum, 3D7), 283 nM.
The matching figures for `CN(C)c1ccc(C=CC=Cc2cc[n+](C)cc2)cc1.[O-][Cl+3]([O-])([O-])[O-]`: > 100000 nM, 532 nM and 770 nM.
Consider `CCN1C(=Cc2sc3ccc(O)cc3[n+]2CC)C=Cc2cc(C)ccc21`, for which the CC50 in series [3] was 5790 nM; with Huh-7 (huh-7, read-out: CC50) it was > 10000 nM. In addition, the concentration giving a half-maximal response (EC50) was 291 nM with Plasmodium falciparum [1] (Plasmodium falciparum, W2); 383 nM with Plasmodium falciparum [1]; 188 nM and 376 nM with Plasmodium falciparum [2].
Regarding `COC(=O)C1=CN(Cc2ccc(OC)cc2)C=C(C(=O)OC)C1c1cccc([N+](=O)[O-])c1`, in the series on Huh-7 (huh-7), the 50% cytotoxic concentration (CC50) entry is “No fit”. For the same compound, the half-maximal effective concentration (EC50) in the series on Plasmodium falciparum [1] (Plasmodium falciparum, W2) was > 1250 nM; in the series with Plasmodium falciparum [2] (Plasmodium falciparum, 3D7), 2120 nM.
Regarding `COc1ccc(C=C2SC(Nc3ccc(F)cc3)=NC2=O)c(OC)c1`, the CC50 in series [3] came out at 12200 nM; with Huh-7 (huh-7, read-out: CC50), 12000 nM. Further, the EC50 was found to be 753 nM in the series with Plasmodium falciparum [1] (Plasmodium falciparum, W2); 532 nM in the series with Plasmodium falciparum [1]; 277 nM with Plasmodium falciparum [2]; 266 nM in the series with Plasmodium falciparum [2] (Plasmodium falciparum, 3D7).
In the case of `Cc1cc(/C=C2\Sc3ccccc3N2C)[n+](C)c2ccccc12`, the CC50 is 6370 nM in series [3] and 11500 nM in the series with Huh-7 (huh-7, read-out: CC50). For the same compound, the EC50 in the series on Plasmodium falciparum [1] (Plasmodium falciparum, W2) is 94 nM; with Plasmodium falciparum [1], 80.2 nM; with Plasmodium falciparum [2], 90.6 nM and 39.2 nM.
Take `CCN1/C(=C/C=C/c2oc3ccc(-c4ccccc4)cc3[n+]2CC)Oc2ccc(-c3ccccc3)cc21`: the 50% cytotoxic concentration (CC50) in series [3] was > 10000 nM; in the series with Huh-7 (huh-7, read-out: CC50) it was 10700 nM. For the same compound, the concentration giving a half-maximal response (EC50) is 1060 nM in the series on Plasmodium falciparum [1] (Plasmodium falciparum, W2); > 569 nM with Plasmodium falciparum [1]; > 1720 nM in the series on Plasmodium falciparum [2] (Plasmodium falciparum, 3D7).
On to `CCN(CC)c1ccc(C=Cc2cc[n+](Cc3ccc(F)cc3)cc2)cc1`, for which the cytotoxic concentration (CC50) in series [3] is 5290 nM; with Huh-7 (huh-7, read-out: CC50), > 10000 nM. For the same compound, the EC50 in the series on Plasmodium falciparum [1] (Plasmodium falciparum, W2) worked out at 769 nM; with Plasmodium falciparum [1], 578 nM; in the series with Plasmodium falciparum [2] it was 417 nM; in the series with Plasmodium falciparum [2] (Plasmodium falciparum, 3D7), 241 nM.
Take `CCN1/C(=C/c2ccc3ccccc3[n+]2CC)Sc2c1ccc1ccccc21`: the CC50 in series [3] is > 10000 nM; with Huh-7 (huh-7, read-out: CC50) it was 7140 nM. The EC50 with Plasmodium falciparum [1] is 682 nM and > 621 nM and 212 nM; in the series on Plasmodium falciparum [2], 225 nM and 631 nM and 334 nM.
For `Cc1[nH]c2ccccc2c1/C=C/c1cc[n+](C)cc1`, the half-maximal cytotoxic concentration (CC50) in the series on Huh-7 (huh-7, read-out: CC50) is > 10000 nM. The concentration for a half-maximal effect (EC50) in the series on Plasmodium falciparum [1] (Plasmodium falciparum, W2) is 116 nM; in the series with Plasmodium falciparum [2] (Plasmodium falciparum, 3D7), 259 nM.
Consider `CCN1/C(=C/c2ccc3cc(OC)ccc3[n+]2CC)Sc2cc(C)ccc21`, for which the half-maximal cytotoxic concentration (CC50) came to 19200 nM in series [3] and 11700 nM in the series with Huh-7 (huh-7, read-out: CC50). The EC50 in the series on Plasmodium falciparum [1] was 275 nM and 86.2 nM; with Plasmodium falciparum [2] it was 90.7 nM; with Plasmodium falciparum [2] (Plasmodium falciparum, 3D7), 161 nM.
For the compound `CCN1/C(=C/C=C/c2sc3ccccc3[n+]2CC)Sc2ccccc21` [ALAZANINE], in the series on Huh-7 (huh-7, read-out: CC50), the 50% cytotoxic concentration (CC50) stood at 27000 nM. Further, the EC50 with Plasmodium falciparum [1] turned out to be 1060 nM; in the series with Plasmodium falciparum [2] (Plasmodium falciparum, 3D7), 200 nM.
As to `Cc1c2oc3c(C)ccc(C(=O)N[C@@H]4C(=O)N[C@H](C(C)C)C(=O)N5CCC[C@H]5C(=O)N(C)CC(=O)N(C)[C@@H](C(C)C)C(=O)O[C@@H]4C)c3nc-2c(C(=O)N[C@@H]2C(=O)N[C@H](C(C)C)C(=O)N3CCC[C@H]3C(=O)N(C)CC(=O)N(C)[C@@H](C(C)C)C(=O)O[C@@H]2C)c(N)c1=O` [DACTINOMYCIN] (I: T[dV]P[Sar][NMeV] / II: T[dV]P[Sar][NMeV]; ester I:1-I:C, II:1-II:C; linker I:N-II:N via Actinocin(1to9)), the CC50 with Huh-7 (huh-7, read-out: CC50) is 4180 nM and > 10000 nM. For the same compound, the half-maximal effective concentration (EC50) is 214 nM in the series on Plasmodium falciparum [1] (Plasmodium falciparum, W2); 395 nM in the series with Plasmodium falciparum [1]; 323 nM and 807 nM with Plasmodium falciparum [2].
As to `CCOc1ccc2nccc([C@@H](O)[C@@H]3C[C@@H]4CCN3C[C@@H]4CC)c2c1` [ETHYLHYDROCUPREINE HYDROCHLORIDE], in the series on Huh-7 (huh-7, read-out: CC50), the half-maximal cytotoxic concentration (CC50) is > 10000 nM. Moreover, the EC50 with Plasmodium falciparum [1] was < 3.48 nM; with Plasmodium falciparum [2], 39 nM.
Take `CCOc1ccc2nccc([C@@H](O)[C@@H]3C[C@@H]4CCN3C[C@@H]4CC)c2c1` [ETHYLHYDROCUPREINE]: the half-maximal cytotoxic concentration (CC50) in the series with Huh-7 (huh-7, read-out: CC50) was 53800 nM. The EC50 in the series on Plasmodium falciparum [1] was found to be 25.7 nM; in the series with Plasmodium falciparum [2] (Plasmodium falciparum, 3D7), 31.8 nM.
